Among the data in US10563263B2, “Genetic polymorphisms associated with statin response and cardiovascular diseases, methods of detection and uses thereof” (CELERA CORPORATION, priority 2010, dated 2020) are myopathic potential and OR values, retold here.

Data set [1] concerns myocyte cultures. The conditions noted are these: animal models and myocyte cultures; compared to lipophilic statins; cited from earlier work.
Data set [2] deals with CHD or CVD. Kind of data set: WOSCOPS: SNP by pravastatin treatment interaction, logistic regression (synergy index), cohort source; End-point (CHD or CVD) of the marker not given. The format is in vivo, human.

Turning to `CC[C@H](C)C(=O)O[C@H]1C[C@H](O)C=C2C=C[C@H](C)[C@H](CC[C@@H](O)C[C@@H](O)CC(=O)O)[C@H]21` [Pravastatin, pravastatin], in data set [1], the myopathic potential result is listed as “low myopathic potential”. In addition, the OR in data set [2] (marker rs1068705, pravastatin vs placebo) turned out to be 0.74; in data set [2] (marker rs1564078, pravastatin vs placebo), 0.79; in data set [2] (marker rs9557509, pravastatin vs placebo), 1.42; in data set [2] (marker rs10802865, pravastatin vs placebo), 1.16; in data set [2] (marker rs11668038, pravastatin vs placebo), 1.25; in data set [2] (marker rs17035071, pravastatin vs placebo), 1.22.
